Columns and labels:
Format in all cases: in vivo
Apera spica-venti [1] = assay: Test Example 5: herbicidal effect by foliage application, plastic box (symbol L); settings: 320 g/ha, 3 weeks after application
In short: (§1)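 After sowing into sterilized diluvial soil and growing two weeks under glass at 25° C. to 30° C., seedlings receive a uniform foliar spray of diluted emulsion. Damage is judged visually three weeks on.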

Chenopodium album [2] = assay: Test Example 5: herbicidal effect by foliage application, plastic box (symbol O); settings: 320 g/ha, 3 weeks after application
In short: as §1

corn [3] = assay: Test Example 4: effect on crop by soil treatment (symbol c); settings: application herbicide amount 320 g/ha
Text: (§2) Herbicidal Effect Test by Soil Treatment
(§3) Sterilized diluvial soil was placed in a plastic box having a length of 21 cm, a width of 13 cm, and a depth of 7 cm. Each of the seeds of Digitaria ciliaris, Setaria viridis, Echinochloa crus-galli var. crus-galli, Avena fatua, Alopecurus myosuroides, Lolium multiflorum Lam., Apera spica-venti, Abutilon theophrasti, Amaranthus retroflexus, Chenopodium album, Stellaria media, Galium spurium, Veronica persica, corn, soybean, rice, wheat, beet, and rapeseed was sowed in a spot-like manner and was covered with the soil of a thickness of about 1.5 cm. […] The plastic box was placed in a greenhouse of 25° C. to 30° C. to grow plant.

soybean [4] = assay: Test Example 5: effect on crop by foliage application, plastic box (symbol d); settings: 320 g/ha, 3 weeks after application
In short: (§4)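 Seeds were sown in spots in sterilized diluvial soil held in a plastic box 21 cm × 13 cm × 7 cm deep, covered with about 1.5 cm of soil, and grown in a greenhouse at 25° C. to 30° C.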

Stellaria media [5] = assay: Test Example 4: herbicidal effect by soil treatment (symbol P); settings: application herbicide amount 320 g/ha
Text: as §2
(§5) Sterilized diluvial soil was placed in a plastic box having a length of 21 cm, a width of 13 cm, and a depth of 7 cm. Each of the seeds of Digitaria ciliaris, Setaria viridis, Echinochloa crus-galli var. crus-galli, Avena fatua, Alopecurus myosuroides, Lolium multiflorum Lam., Apera spica-venti, Abutilon theophrasti, Amaranthus retroflexus, Chenopodium album, Stellaria media, Galium spurium, Veronica persica, corn, soybean, rice, wheat, beet, and rapeseed was sowed in a spot-like manner and was covered with the soil of a thickness of about 1.5 cm. Subsequently, the emulsion agent of the compound present invention prepared in accordance with Formulation Example 2 was diluted with water so as to be a predetermined herbicide amount and the diluted emulsion agent was uniformly applied to the surface of the soil with a small-size spray. The plastic box was placed in a greenhouse of 25° C. to 30° C. to grow plant. 3 weeks later from the herbicide application, the effect to each plant was investigated in accordance with the criteria of Test Example 1.

Digitaria ciliaris [6] = assay: Test Example 5: herbicidal effect by foliage application, plastic box (symbol F); settings: 320 g/ha, 3 weeks after application
In short: as §1

Monochoria vaginalis = assay: Test Example 2: herbicidal activity, application during weed generation in submerged conditions (symbol C); settings: Table 23; application herbicide amount 320 g/ha; grade 0-5 by criteria of Test Example 1
In short: (§6)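 Alluvial soil in pots was flooded to a 4 cm water depth and sown with a mix of the three weed species, then grown in a greenhouse at 25° C. to 30° C. At the one- to two-leaf stage, an emulsifiable formulation diluted in water to a set dose was applied to the water surface. Effects were scored visually 3 weeks later.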

[7] = test system: Echinochloa crus-galli var. crus-galli; assay: Test Example 5: herbicidal effect by foliage application, plastic box (symbol H); settings: 320 g/ha, 3 weeks after application
In short: as §1

Veronica persica [8] = assay: Test Example 4: herbicidal effect by soil treatment (symbol R); settings: application herbicide amount 320 g/ha
Text: as §2, §5

Alopecurus myosuroides [9] = assay: Test Example 5: herbicidal effect by foliage application, plastic box (symbol J); settings: 320 g/ha, 3 weeks after application
In short: as §1

beet [10] = assay: Test Example 4: effect on crop by soil treatment (symbol f); settings: application herbicide amount 320 g/ha
Text: as §2, §3

beet [11] = assay: Test Example 5: effect on crop by foliage application, plastic box (symbol f); settings: 320 g/ha, 3 weeks after application
In short: as §4

Galium spurium = assay: Test Example 4: herbicidal effect by soil treatment (symbol Q); settings: application herbicide amount 320 g/ha
Text: as §2, §5

rice plant = assay: Test Example 5: effect on crop by foliage application, plastic box (symbol b); settings: 320 g/ha, 3 weeks after application
In short: as §4

Digitaria ciliaris [12] = assay: Test Example 4: herbicidal effect by soil treatment (symbol F); settings: application herbicide amount 320 g/ha
Text: as §2, §5

Apera spica-venti [13] = assay: Test Example 4: herbicidal effect by soil treatment (symbol L); settings: application herbicide amount 320 g/ha
Text: as §2, §5

Lolium multiflorum Lam. [14] = assay: Test Example 5: herbicidal effect by foliage application, plastic box (symbol K); settings: 320 g/ha, 3 weeks after application
In short: as §1

Lolium multiflorum Lam. [15] = assay: Test Example 4: herbicidal effect by soil treatment (symbol K); settings: application herbicide amount 320 g/ha
Text: as §2, §5

Abutilon theophrasti [16] = assay: Test Example 5: herbicidal effect by foliage application, plastic box (symbol M); settings: 320 g/ha, 3 weeks after application
In short: as §1

Avena fatua [17] = assay: Test Example 5: herbicidal effect by foliage application, plastic box (symbol I); settings: 320 g/ha, 3 weeks after application
In short: as §1

rice = assay: Test Example 4: effect on crop by soil treatment (symbol b); settings: application herbicide amount 320 g/ha
Text: as §2, §3

corn [18] = assay: Test Example 5: effect on crop by foliage application, plastic box (symbol c); settings: 320 g/ha, 3 weeks after application
In short: as §4

wheat [19] = assay: Test Example 4: effect on crop by soil treatment (symbol e); settings: application herbicide amount 320 g/ha
Text: as §2, §3

Scirpus juncoides = assay: Test Example 2: herbicidal activity, application during weed generation in submerged conditions (symbol B); settings: Table 23; application herbicide amount 320 g/ha; grade 0-5 by criteria of Test Example 1
In short: as §6

soybean [20] = assay: Test Example 4: effect on crop by soil treatment (symbol d); settings: application herbicide amount 320 g/ha
Text: as §2, §3

Veronica persica [21] = assay: Test Example 5: herbicidal effect by foliage application, plastic box (symbol R); settings: 320 g/ha, 3 weeks after application
In short: as §1

rapeseed [22] = assay: Test Example 5: effect on crop by foliage application, plastic box (symbol g); settings: 320 g/ha, 3 weeks after application
In short: as §4

wheat [23] = assay: Test Example 5: effect on crop by foliage application, plastic box (symbol e); settings: 320 g/ha, 3 weeks after application
In short: as §4

rapeseed [24] = assay: Test Example 4: effect on crop by soil treatment (symbol g); settings: application herbicide amount 320 g/ha
Text: as §2, §3

Stellaria media [25] = assay: Test Example 5: herbicidal effect by foliage application, plastic box (symbol P); settings: 320 g/ha, 3 weeks after application
In short: as §1

[26] = test system: Echinochloa oryzacola Vasing.; assay: Test Example 2: herbicidal activity, application during weed generation in submerged conditions (symbol A); settings: Table 23; application herbicide amount 320 g/ha; grade 0-5 by criteria of Test Example 1
In short: as §6

Avena fatua [27] = assay: Test Example 4: herbicidal effect by soil treatment (symbol I); settings: application herbicide amount 320 g/ha
Text: as §2, §5

[28] = test system: Echinochloa crus-galli var. crus-galli; assay: Test Example 4: herbicidal effect by soil treatment (symbol H); settings: application herbicide amount 320 g/ha
Text: as §2, §5

Amaranthus retroflexus [29] = assay: Test Example 5: herbicidal effect by foliage application, plastic box (symbol N); settings: 320 g/ha, 3 weeks after application
In short: as §1

Setaria viridis [30] = assay: Test Example 5: herbicidal effect by foliage application, plastic box (symbol G); settings: 320 g/ha, 3 weeks after application
In short: as §1

Chenopodium album [31] = assay: Test Example 4: herbicidal effect by soil treatment (symbol O); settings: application herbicide amount 320 g/ha
Text: as §2, §5

Alopecurus myosuroides [32] = assay: Test Example 4: herbicidal effect by soil treatment (symbol J); settings: application herbicide amount 320 g/ha
Text: as §2, §5

Setaria viridis [33] = assay: Test Example 4: herbicidal effect by soil treatment (symbol G); settings: application herbicide amount 320 g/ha
Text: as §2, §5

Abutilon theophrasti [34] = assay: Test Example 4: herbicidal effect by soil treatment (symbol M); settings: application herbicide amount 320 g/ha
Text: as §2, §5

Amaranthus retroflexus [35] = assay: Test Example 4: herbicidal effect by soil treatment (symbol N); settings: application herbicide amount 320 g/ha
Text: as §2, §5

Compound: CC(=O)CC1CC(O)=C(c2c(C)cc(C3CC3)cc2C)C1=O (stereo not shown) [7-013]
- L: Apera spica-venti, herbicidal effect (criteria of Test Example 1) (Apera spica-venti [1]): 0 (Herbicidal ratio of 5% or lower (almost no effect))
- O: Chenopodium album, herbicidal effect (criteria of Test Example 1) (Chenopodium album [2]): 0 (Herbicidal ratio of 5% or lower (almost no effect))
- Effect on crop grade, c: corn (corn [3]): 0 (Herbicidal ratio of 5% or lower (almost no effect))
- d: soybean, effect on crop (criteria of Test Example 1) (soybean [4]): 0 (Herbicidal ratio of 5% or lower (almost no effect))
- Herbicidal effect grade, P: Stellaria media (Stellaria media [5]): 0 (Herbicidal ratio of 5% or lower (almost no effect))
- F: Digitaria ciliaris, herbicidal effect (criteria of Test Example 1) (Digitaria ciliaris [6]): 4 (Herbicidal ratio of 70% or higher and lower than 90%)
- Herbicidal effect grade, C: Monochoria vaginalis (Monochoria vaginalis): 0 (Herbicidal ratio of 5% or lower (almost no effect))
- H: Echinochloa crus-galli var. crus-galli, herbicidal effect (criteria of Test Example 1) [7]: 1 (Herbicidal ratio of 5% or higher and lower than 20%)
- Herbicidal effect grade, R: Veronica persica (Veronica persica [8]): 0 (Herbicidal ratio of 5% or lower (almost no effect))
- J: Alopecurus myosuroides, herbicidal effect (criteria of Test Example 1) (Alopecurus myosuroides [9]): 3 (Herbicidal ratio of 40% or higher and lower than 70%)
- Effect on crop grade, f: beet (beet [10]): 0 (Herbicidal ratio of 5% or lower (almost no effect))
- f: beet, effect on crop (criteria of Test Example 1) (beet [11]): 0 (Herbicidal ratio of 5% or lower (almost no effect))
- Herbicidal effect grade, Q: Galium spurium (Galium spurium): 0 (Herbicidal ratio of 5% or lower (almost no effect))
- b: directly sowed rice plant, effect on crop (criteria of Test Example 1) (rice plant): 1 (Herbicidal ratio of 5% or higher and lower than 20%)
- Herbicidal effect grade, F: Digitaria ciliaris (Digitaria ciliaris [12]): 3 (Herbicidal ratio of 40% or higher and lower than 70%)
- Herbicidal effect grade, L: Apera spica-venti (Apera spica-venti [13]): 0 (Herbicidal ratio of 5% or lower (almost no effect))
- K: Lolium multiflorum Lam., herbicidal effect (criteria of Test Example 1) (Lolium multiflorum Lam. [14]): 3 (Herbicidal ratio of 40% or higher and lower than 70%)
- Herbicidal effect grade, K: Lolium multiflorum Lam. (Lolium multiflorum Lam. [15]): 0 (Herbicidal ratio of 5% or lower (almost no effect))
- M: Abutilon theophrasti, herbicidal effect (criteria of Test Example 1) (Abutilon theophrasti [16]): 0 (Herbicidal ratio of 5% or lower (almost no effect))
- I: Avena fatua, herbicidal effect (criteria of Test Example 1) (Avena fatua [17]): 1 (Herbicidal ratio of 5% or higher and lower than 20%)
- Effect on crop grade, b: directly sowed rice plant (rice): 4 (Herbicidal ratio of 70% or higher and lower than 90%)
- c: corn, effect on crop (criteria of Test Example 1) (corn [18]): 0 (Herbicidal ratio of 5% or lower (almost no effect))
- Effect on crop grade, e: wheat (wheat [19]): 0 (Herbicidal ratio of 5% or lower (almost no effect))
- Herbicidal effect grade, B: Scirpus juncoides (Scirpus juncoides): 0 (Herbicidal ratio of 5% or lower (almost no effect))
- Effect on crop grade, d: soybean (soybean [20]): 0 (Herbicidal ratio of 5% or lower (almost no effect))
- R: Veronica persica, herbicidal effect (criteria of Test Example 1) (Veronica persica [21]): 0 (Herbicidal ratio of 5% or lower (almost no effect))
- g: rapeseed, effect on crop (criteria of Test Example 1) (rapeseed [22]): 1 (Herbicidal ratio of 5% or higher and lower than 20%)
- e: wheat, effect on crop (criteria of Test Example 1) (wheat [23]): 0 (Herbicidal ratio of 5% or lower (almost no effect))
- Effect on crop grade, g: rapeseed (rapeseed [24]): 0 (Herbicidal ratio of 5% or lower (almost no effect))
- P: Stellaria media, herbicidal effect (criteria of Test Example 1) (Stellaria media [25]): 0 (Herbicidal ratio of 5% or lower (almost no effect))
- Herbicidal effect grade, A: Echinochloa oryzacola Vasing. [26]: 2 (Herbicidal ratio of 20% or higher and lower than 40%)
- Herbicidal effect grade, I: Avena fatua (Avena fatua [27]): 0 (Herbicidal ratio of 5% or lower (almost no effect))
- Herbicidal effect grade, H: Echinochloa crus-galli var. crus-galli [28]: 0 (Herbicidal ratio of 5% or lower (almost no effect))
- N: Amaranthus retroflexus, herbicidal effect (criteria of Test Example 1) (Amaranthus retroflexus [29]): 5 (Herbicidal ratio of 90% or more (almost completely withered))
- G: Setaria viridis, herbicidal effect (criteria of Test Example 1) (Setaria viridis [30]): 2 (Herbicidal ratio of 20% or higher and lower than 40%)
- Herbicidal effect grade, O: Chenopodium album (Chenopodium album [31]): 0 (Herbicidal ratio of 5% or lower (almost no effect))
- Herbicidal effect grade, J: Alopecurus myosuroides (Alopecurus myosuroides [32]): 0 (Herbicidal ratio of 5% or lower (almost no effect))
- Herbicidal effect grade, G: Setaria viridis (Setaria viridis [33]): 0 (Herbicidal ratio of 5% or lower (almost no effect))
- Herbicidal effect grade, M: Abutilon theophrasti (Abutilon theophrasti [34]): 0 (Herbicidal ratio of 5% or lower (almost no effect))
- Herbicidal effect grade, N: Amaranthus retroflexus (Amaranthus retroflexus [35]): 0 (Herbicidal ratio of 5% or lower (almost no effect))
